Test results taken from patent US7022739B2, “Substituted 1-aminobutan-3-ol compounds” (Gruenenthal GmbH, priority 2000, dated 2006).

Tests used:
gabapentin binding site = assay: Gabapentin binding assay (displacement of gabapentin from its binding site)
Description: Gabapentin is used in the binding assay in order to check the binding and affinities of the selected compounds. The affinity of the compounds according to the invention is measured via the displacement of gabapentin from its binding site.

[1] = test system: phenylquinone-induced writhing; assay: Phenylquinone-induced writhing test in mice; assay type: in vivo; settings: male NMRI mice, groups of 10

| SMILES | % Inhibition Gabapentin, 10 μmole (gabapentin binding site) [%] | Reacting Animals/Control Animals (Writhing) ([1]; 10 mg/kg, iv) | also measured |
| --- | --- | --- | --- |
| COc1cccc(C2CCCC(CN(C)C)C2(O)c2ccc(Cl)cc2)c1 (stereo not shown) [Example 45, 1-(4-chlorophenyl)-2-dimethylaminomethyl-6-(3-methoxyphenyl)-cyclohexanol] | 58 | – | – |
| COc1cccc(C2CCCC(CN(C)C)C2(O)c2cccc(Cl)c2)c1 (stereo not shown) [Example 75, 1-(3-chlorophenyl)-2-dimethylaminomethyl-6-(3-methoxyphenyl)-cyclohexanol] | 54 | – | – |
| COc1cccc(C2CCCC(CN(C)C)C2(O)c2ccc(C)cc2)c1 (stereo not shown) [Example 76, 2-dimethylaminomethyl-6-(3-methoxyphenyl)-1-p-tolylcyclohexanol] | 53 | – | – |
| CN(C)CC1CCCC(c2cccc(O)c2)C1(O)c1ccc(F)cc1 (stereo not shown) [Example 81, 3-[3-dimethylaminomethyl-2-(4-fluorophenyl)-2-hydroxycyclohexyl]-phenol] | 48 | – | – |
| CN(C)CC1CCCC(c2cccc(O)c2)C1(O)c1ccccc1 (stereo not shown) [Example 82, 3-(3-dimethylaminomethyl-2-hydroxy-2-phenylcyclohexyl)-phenol] | 55 | – | – |
| COc1cccc(C2CCCC(CN(C)C)C2(O)c2ccc(Cl)cc2)c1 (stereo not shown) [Example 85, 1-(4-chlorophenyl)-2-dimethylaminomethyl-6-(3-methoxyphenyl)-cyclohexanol] | – | – | Reacting Animals/Control Animals (Writhing) ([1]; 46.4 mg/kg, iv): 10/10 (46.4 mg/kg; iv) |
| COc1cccc(C2(O)C(CN(C)C)CCCC2C2CCCCC2)c1 (stereo not shown) [Example 86, 3-dimethylaminomethyl-2-(3-methoxyphenyl)-bicyclohexyl-2-ol] | – | – | Reacting Animals/Control Animals (Writhing) ([1]; 21.5 mg/kg, po): 3/10 (21.5 mg/kg; po) |
| CN(C)CC1CCCC(Cc2ccccc2)C1(O)c1ccc(C(F)(F)F)cc1 (stereo not shown) [Example 87, 2-benzyl-6-dimethylaminomethyl-1-(4-trifluoromethylphenyl)-cyclohexanol] | – | 2/10 (10 mg/kg; iv) | – |
| CN(C)CC1CCCC(Cc2ccccc2)C1(O)c1cccc(O)c1 (stereo not shown) [Example 88, 3-(2-benzyl-6-dimethylaminomethyl-1-hydroxycyclohexyl)-phenol] | – | 2/10 (10 mg/kg; iv) | – |
| CN(C)CC1CCCC(C(C)(C)C)C1(O)c1cccc(O)c1 (stereo not shown) [Example 89, 3-(2-tert.-butyl-6-dimethylaminomethyl-1-hydroxycyclohexyl)-phenol] | – | 3/10 (10 mg/kg; iv) | – |
